Results from ChEMBL document CHEMBL4627246, “Pyroglutamide-Based P2X7 Receptor Antagonists Targeting Inflammatory Bowel Disease” (J Med Chem, 2020).

How the values were obtained:
Format in all cases: cell-based
HCC 2998 = assay: Cytotoxicity against human HCC2998 cells assessed as effect on cell growth at 10 uM incubated for 48 hrs by sulforhodamine B assay; details: hcc 2998, 48 h
HCT-116 = assay: Cytotoxicity against human HCT116 cells assessed as effect on cell growth at 10 uM incubated for 48 hrs by sulforhodamine B assay; details: hct-116, 48 h
HT-29 = assay: Cytotoxicity against human HT-29 cells assessed as effect on cell growth at 10 uM incubated for 48 hrs by sulforhodamine B assay; details: ht-29, 48 h
SF-539 = assay: Cytotoxicity against human SF539 cells assessed as effect on cell growth at 10 uM incubated for 48 hrs by sulforhodamine B assay; details: sf-539, 48 h
SNB-19 = assay: Cytotoxicity against human SNB19 cells assessed as effect on cell growth at 10 uM incubated for 48 hrs by sulforhodamine B assay; details: snb-19, 48 h
MDA-MB-435 = assay: Cytotoxicity against human MDA-MB-435 cells assessed as effect on cell growth at 10 uM incubated for 48 hrs by sulforhodamine B assay; details: mda-mb-435, 48 h
SK-MEL-2 = assay: Cytotoxicity against human SK-MEL-2 cells assessed as effect on cell growth at 10 uM incubated for 48 hrs by sulforhodamine B assay; details: sk-mel-2, 48 h
UACC-62 = assay: Cytotoxicity against human UACC62 cells assessed as effect on cell growth at 10 uM incubated for 48 hrs by sulforhodamine B assay; details: uacc-62, 48 h
OVCAR-3 = assay: Cytotoxicity against human OVCAR3 cells assessed as effect on cell growth at 10 uM incubated for 48 hrs by sulforhodamine B assay; details: ovcar-3, 48 h
OVCAR-5 = assay: Cytotoxicity against human OVCAR5 cells assessed as effect on cell growth at 10 uM incubated for 48 hrs by sulforhodamine B assay; details: ovcar-5, 48 h
OVCAR-8 = assay: Cytotoxicity against human OVCAR8 cells assessed as effect on cell growth at 10 uM incubated for 48 hrs by sulforhodamine B assay; details: ovcar-8, 48 h
786-0 = assay: Cytotoxicity against human 786-0 cells assessed as effect on cell growth at 10 uM incubated for 48 hrs by sulforhodamine B assay; details: 786-0, 48 h
A498 = assay: Cytotoxicity against human A498 cells assessed as effect on cell growth at 10 uM incubated for 48 hrs by sulforhodamine B assay; details: a498, 48 h
RXF 393 = assay: Cytotoxicity against human RXF393 cells assessed as effect on cell growth at 10 uM incubated for 48 hrs by sulforhodamine B assay; details: rxf 393, 48 h
TK-10 = assay: Cytotoxicity against human TK10 cells assessed as effect on cell growth at 10 uM incubated for 48 hrs by sulforhodamine B assay; details: tk-10, 48 h
UO-31 = assay: Cytotoxicity against human UO31 cells assessed as effect on cell growth at 10 uM incubated for 48 hrs by sulforhodamine B assay; details: uo-31, 48 h
DU-145 = assay: Cytotoxicity against human DU145 cells assessed as effect on cell growth at 10 uM incubated for 48 hrs by sulforhodamine B assay; details: du-145, 48 h
MCF7 = assay: Cytotoxicity against human MCF7 cells assessed as effect on cell growth at 10 uM incubated for 48 hrs by sulforhodamine B assay; details: mcf7, 48 h
T47D = assay: Cytotoxicity against human T47D cells assessed as effect on cell growth at 10 uM incubated for 48 hrs by sulforhodamine B assay
MDA-MB-468 = assay: Cytotoxicity against human MDA-MB-468 cells assessed as effect on cell growth at 10 uM incubated for 48 hrs by sulforhodamine B assay; details: mda-mb-468, 48 h

Measured: Activity

COc1ccc(CN2C(=O)[C@@H]3C/C(=C\N(C)C)C(=O)N3C2N(C)C)c(OC)c1 (stereo not given in full)
Non-Toxic: all assays above

O=C(NCc1ccc(Cl)cc1Cl)[C@@H]1CCC(=O)N1c1nccs1
Non-Toxic: all assays above

CN(C)/C=C1\C[C@H]2C(=O)N(Cc3ccccc3Cl)C(N(C)C)N2C1=O (stereo not given in full)
Non-Toxic: all assays above

CN1C(=O)CC[C@H]1C(=O)NCc1cc(C(F)(F)F)ccc1Cl
Non-Toxic: all assays above

COc1ccc(N2C(=O)[C@@H]3C/C(=C\N(C)C)C(=O)N3C2N(C)C)cc1 (stereo not given in full)
Non-Toxic: all assays above

O=C(NCc1ccc(Cl)cc1Cl)[C@@H]1CCC(=O)N1c1ccsc1
Non-Toxic: all assays above

COc1ccc(NC(=O)[C@@H]2CCC(=O)N2)cc1OC
Non-Toxic: all assays above

COc1ccccc1CN1C(=O)[C@@H]2C/C(=C\N(C)C)C(=O)N2C1N(C)C (stereo not given in full)
Non-Toxic: all assays above

O=C(NCc1ccccc1Cl)[C@@H]1CCC(=O)N1Cc1ccccc1
Non-Toxic: all assays above
